Values quoted from earlier work, collected in US10822355B2, “Ultralow-power near infrared lamp light operable targeted organic nanoparticle photodynamic therapy” (University of Massachusetts, priority 2016, dated 2020).

What was measured:
[1] = for ε: at 525 nm (B-1), 630 nm (B-2), 661 nm (B-3); for ΦF (%) / ε/10^5 M^−1 cm^−1 / λabs (max) / λem (max): literature values (References S2, S6, S7)
[2] = for ΦΔ (%): literature values (References S2, S6, S7)

ε [1] | ΦF (%) [1] | ε/10^5 M^−1 cm^−1 [1] | λabs (max) [1] | λem (max) [1] | Molecule | ΦΔ (%) [2] | ΦΔ of reference ([2]; in dichloromethane)
85000 M⁻¹ cm⁻¹ | 3% | 0.85 10^5 M^−1 cm^−1 | 529 | 548 | 2,6-diiodio-BODIPY [B-1] | 79.5% | 
77000 M⁻¹ cm⁻¹ | 5% | 0.77 10^5 M^−1 cm^−1 | 630 | 654 | 2,6-diiodiodistyl-BODIPY [B-2] | 69.0% | 
98000 M⁻¹ cm⁻¹ | 7% | 0.98 10^5 M^−1 cm^−1 | 661 | 689 | 2,6-diiodiodistyl-BODIPY [B-3] | 61.2% | 
 |  |  |  |  | CN(C)c1ccc2nc3ccc(=[N+](C)C)cc-3sc2c1 [methyl blue, methylene blue] |  | 0.52
